Experimental data taken from the supplement of paper PMC13380429.

Key:
Conditions in all cases: 72 h
Caco-2 [1] = experiment: cell viability relative to DMSO; higher = less toxic
Calu-3 [2] = experiment: as above
HepG2 [3] = experiment: as above
Vero E6 [4] = experiment: as above
Caco-2 [5] = experiment: relative viability EC50 (midpoint between 100% and the lowest measured viability); higher = less toxic
Calu-3 [6] = experiment: as above
HepG2 [7] = experiment: as above
Vero E6 [8] = experiment: as above
Caco-2 [9] = experiment: drug sensitivity score (DSS) for viability; higher = more toxic; extreme values may be limits of the assay
Calu-3 [10] = experiment: as above
HepG2 [11] = experiment: as above
Vero E6 [12] = experiment: as above
U2OS [13] = experiment: cell viability relative to DMSO; higher = less toxic
U2OS [14] = experiment: relative viability EC50 (midpoint between 100% and the lowest measured viability); higher = less toxic
U2OS [15] = experiment: drug sensitivity score (DSS) for viability; higher = more toxic; extreme values may be limits of the assay

Row | Compound | cell viability (Caco-2 [1]; 1 nM) [%] | cell viability (Caco-2 [1]; 10 nM) [%] | cell viability (Caco-2 [1]; 100 nM) [%] | cell viability (Caco-2 [1]; 1000 nM) [%] | cell viability (Caco-2 [1]; 10000 nM) [%] | cell viability (Calu-3 [2]; 1 nM) [%] | cell viability (Calu-3 [2]; 10 nM) [%] | cell viability (Calu-3 [2]; 100 nM) [%] | cell viability (Calu-3 [2]; 1000 nM) [%] | cell viability (Calu-3 [2]; 10000 nM) [%] | cell viability (HepG2 [3]; 1 nM) [%] | cell viability (HepG2 [3]; 10 nM) [%] | cell viability (HepG2 [3]; 100 nM) [%] | cell viability (HepG2 [3]; 1000 nM) [%] | cell viability (HepG2 [3]; 10000 nM) [%] | cell viability (Vero E6 [4]; 1 nM) [%] | cell viability (Vero E6 [4]; 10 nM) [%] | cell viability (Vero E6 [4]; 100 nM) [%] | cell viability (Vero E6 [4]; 1000 nM) [%] | cell viability (Vero E6 [4]; 10000 nM) [%] | relative viability EC50 (Caco-2 [5]) [µM] | relative viability EC50 (Calu-3 [6]) [µM] | relative viability EC50 (HepG2 [7]) [µM] | relative viability EC50 (Vero E6 [8]) [µM] | drug sensitivity score (Caco-2 [9]) | drug sensitivity score (Calu-3 [10]) | drug sensitivity score (HepG2 [11]) | drug sensitivity score (Vero E6 [12]) | cell viability (U2OS [13]; 1 nM) [%] | cell viability (U2OS [13]; 10 nM) [%] | cell viability (U2OS [13]; 100 nM) [%] | cell viability (U2OS [13]; 1000 nM) [%] | cell viability (U2OS [13]; 10000 nM) [%] | relative viability EC50 (U2OS [14]) [µM] | drug sensitivity score (U2OS [15])
1 | Cc1c(Cl)cccc1S(=O)(=O)Nc1nc(CC(=O)N2CCN(C)CC2)cs1 [BVT-2733] | 106 | 92.6 | 100 | 106 | 98.3 | 108 | 102 | 92.5 | 102 | 106 | 104 | 101 | 92.7 | 104 | 97.4 | 103 | 101 | 107 | 102 | 94.6 | > 10 | > 10 | > 10 | > 10 | 0 | 0 | 0 | 0 | – | – | – | – | – | – | –
2 | N=C(N)SCCc1c[nH]cn1 [imetit] | 97.2 | 99.1 | 97 | 100 | 93.5 | 97.8 | 109 | 97 | 93.7 | 87.8 | 112 | 111 | 95.9 | 95.2 | 112 | 103 | 103 | 103 | 97.1 | 101 | > 10 | > 10 | > 10 | > 10 | 0 | 0.1 | 0 | 0 | – | – | – | – | – | – | –
3 | C=C[C@]1(C)C[C@@H](OC(=O)CSC(C)(C)CNC(=O)[C@H](N)C(C)C)[C@]2(C)[C@H](C)CC[C@]3(CCC(=O)[C@H]32)[C@@H](C)[C@@H]1O [valnemulin] | 99.4 | 93.3 | 91.8 | 94.5 | 80.9 | 94.3 | 98.6 | 102 | 101 | 98.9 | 98.6 | 104 | 93.7 | 88.1 | 63 | 97.1 | 98.7 | 103 | 95.1 | 88.3 | > 10 | > 10 | – | > 10 | 0.7 | 0 | 3 | 0.2 | 97.4 | 99.4 | 97.7 | 96.3 | 79.5 | > 10 | 1.1
4 | CC(C)(CO)CCCCCCC(C)(C)CO [gemcadiol] | 89.7 | 129 | 113 | 128 | 92.2 | 97.4 | 93.5 | 100 | 94.3 | 105 | – | – | – | – | – | 93.8 | 102 | 102 | 103 | 108 | > 10 | > 10 | – | > 10 | 0 | 0 | – | 0 | 97 | 94.5 | 103 | 96.8 | 98.7 | > 10 | 0
